Measured values published in PubChem BioAssay AID2060908 (Molecular Pharmacology Branch, DTP, NCI, 2025).

Tested on: 186277-243-T-J2-PDC complex spheroids, viability
Test: Anticancer human tumor 186277-243-T-J2-PDC patient-derived colon adenocarcinoma cell line growth inhibition [RAS]
Conditions: for IC50: curve of first compound; for viability, T/C: stronger effect = lower value; active means viability on the fitted dose curve at most 10% of control; inactive means the rest
Procedure, shortened: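 Agents were tested in combination matrices in half-log decrements from a top concentration at or near clinical Cmax (10 microM if undetermined). Targets were multi-cell spheroids of tumour lines plus HUVEC and MSC stromal cells.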

[1] = second compound 0.000949 µM, first compound 0.0316 µM
[2] = second compound 0.000949 µM, first compound 0.1 µM
[3] = second compound 0.000949 µM, first compound 0.316 µM
[4] = second compound 0.000949 µM, first compound 1 µM
[5] = second compound 0.003 µM, first compound 0.0316 µM
[6] = second compound 0.003 µM, first compound 0.1 µM
[7] = second compound 0.003 µM, first compound 0.316 µM
[8] = second compound 0.003 µM, first compound 1 µM
[9] = second compound 0.00949 µM, first compound 0.0316 µM
[10] = second compound 0.00949 µM, first compound 0.1 µM
[11] = second compound 0.00949 µM, first compound 0.316 µM
[12] = second compound 0.00949 µM, first compound 1 µM
[13] = second compound 0.03 µM, first compound 0.0316 µM
[14] = second compound 0.03 µM, first compound 0.1 µM
[15] = second compound 0.03 µM, first compound 0.316 µM
[16] = second compound 0.03 µM, first compound 1 µM
[17] = second compound 0.0949 µM, first compound 0.0316 µM
[18] = second compound 0.0949 µM, first compound 0.1 µM
[19] = second compound 0.0949 µM, first compound 0.316 µM
[20] = second compound 0.0949 µM, first compound 1 µM
[21] = second compound 0.3 µM, first compound 0.0316 µM
[22] = second compound 0.3 µM, first compound 0.1 µM
[23] = second compound 0.3 µM, first compound 0.316 µM
[24] = second compound 0.3 µM, first compound 1 µM
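Further: spheroids exposed to compounds for 7 days before viability read.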

CC(=O)OC12COC1CC(O)C1(C)C(=O)C(O)C3=C(C)C(OC(=O)C(O)C(NC(=O)OC(C)(C)C)c4ccccc4)CC(O)(C(OC(=O)c4ccccc4)C21)C3(C)C (centres undefined) + CCn1c(-c2cc(N3CCN(C)CC3)cnc2C(C)OC)c2c3cc(ccc31)-c1csc(n1)CC(NC(=O)C1CC1C)C(=O)N1CCCC(N1)C(=O)OCC(C)(C)C2
active: viability, T/C [1] 3.93% | viability, T/C [2] 3.88% | viability, T/C [3] 3.15% | viability, T/C [4] 3.35% | viability, T/C (second compound 0.000949 µM, first compound 3.16 µM) 3.1% | viability, T/C (second compound 0.000949 µM, first compound 10 µM) 2.87% | viability, T/C [5] 4.18% | viability, T/C [6] 3.41% | viability, T/C [7] 3.5% | viability, T/C [8] 3.44% | viability, T/C (second compound 0.003 µM, first compound 3.16 µM) 3.13% | viability, T/C (second compound 0.003 µM, first compound 10 µM) 3.15% | viability, T/C [9] 4.39% | viability, T/C [10] 3.52% | viability, T/C [11] 3.8% | viability, T/C [12] 3.26% | viability, T/C (second compound 0.00949 µM, first compound 3.16 µM) 3.42% | viability, T/C (second compound 0.00949 µM, first compound 10 µM) 3.14% | viability, T/C [13] 3.02% | viability, T/C [14] 3.1% | viability, T/C [15] 2.91% | viability, T/C [16] 3.18% | viability, T/C (second compound 0.03 µM, first compound 3.16 µM) 2.79% | viability, T/C (second compound 0.03 µM, first compound 10 µM) 2.64% | viability, T/C [17] 2.92% | viability, T/C [18] 2.71% | viability, T/C [19] 3.02% | viability, T/C [20] 2.38% | viability, T/C (second compound 0.0949 µM, first compound 3.16 µM) 2.59% | viability, T/C (second compound 0.0949 µM, first compound 10 µM) 2.18% | viability, T/C [21] 2.53% | viability, T/C [22] 2.47% | viability, T/C [23] 2.58% | viability, T/C [24] 2.35% | viability, T/C (second compound 0.3 µM, first compound 3.16 µM) 2.5% | viability, T/C (second compound 0.3 µM, first compound 10 µM) 2.28%
< 31.6 nM: IC50 (second compound 0.000949 µM) | IC50 (second compound 0.003 µM) | IC50 (second compound 0.00949 µM) | IC50 (second compound 0.03 µM) | IC50 (second compound 0.0949 µM) | IC50 (second compound 0.3 µM)

Nc1ccn(C2OC(CO)C(O)C2(F)F)c(=O)n1 (centres undefined) + CCn1c(-c2cc(N3CCN(C)CC3)cnc2C(C)OC)c2c3cc(ccc31)-c1csc(n1)CC(NC(=O)C1CC1C)C(=O)N1CCCC(N1)C(=O)OCC(C)(C)C2
4.76 nM: IC50 (second compound 0.000949 µM)
inactive: viability, T/C (second compound 0.000949 µM, first compound 0.00316 µM) 73% | viability, T/C (second compound 0.003 µM, first compound 0.00316 µM) 48% | viability, T/C (second compound 0.00949 µM, first compound 0.00316 µM) 12.7%
< 3.16 nM: IC50 (second compound 0.003 µM) | IC50 (second compound 0.00949 µM) | IC50 (second compound 0.03 µM) | IC50 (second compound 0.0949 µM) | IC50 (second compound 0.3 µM)
active: viability, T/C (second compound 0.000949 µM, first compound 0.01 µM) 8.42% | viability, T/C [1] 6.7% | viability, T/C [2] 6.74% | viability, T/C [3] 5.65% | viability, T/C [4] 6.26% | viability, T/C (second compound 0.003 µM, first compound 0.01 µM) 6.35% | viability, T/C [5] 5.14% | viability, T/C [6] 4.45% | viability, T/C [7] 4.85% | viability, T/C [8] 4.99% | viability, T/C (second compound 0.00949 µM, first compound 0.01 µM) 6.13% | viability, T/C [9] 4.72% | viability, T/C [10] 4.79% | viability, T/C [11] 5.02% | viability, T/C [12] 4.12% | viability, T/C (second compound 0.03 µM, first compound 0.00316 µM) 7.84% | viability, T/C (second compound 0.03 µM, first compound 0.01 µM) 5.11% | viability, T/C [13] 4.83% | viability, T/C [14] 4.21% | viability, T/C [15] 4.75% | viability, T/C [16] 3.8% | viability, T/C (second compound 0.0949 µM, first compound 0.00316 µM) 5.28% | viability, T/C (second compound 0.0949 µM, first compound 0.01 µM) 4.76% | viability, T/C [17] 4.18% | viability, T/C [18] 3.97% | viability, T/C [19] 3.99% | viability, T/C [20] 3.27% | viability, T/C (second compound 0.3 µM, first compound 0.00316 µM) 5.42% | viability, T/C (second compound 0.3 µM, first compound 0.01 µM) 4.54% | viability, T/C [21] 3.86% | viability, T/C [22] 3.78% | viability, T/C [23] 3.81% | viability, T/C [24] 3.23%
